Source: US10562878B2, “Cycloalkylamines as monoamine reuptake inhibitors” (Sunovion Pharmaceuticals Inc., priority 2006, dated 2020)
Where a name gives a salt, the structure may show the parent alone. Read-outs that look alike come from different tables or passages of the source.

What was measured:
[1] = molecular target: T1, Norepinephrine Transporter (NET) sites in mouse brain (Mus musculus (Mouse), UniProt O55192); settings: mice, 60 min after treatment
mice [2] = test: Mouse tail suspension test; type: in vivo
[3] = molecular target: 5-HT Transporter (SERT) sites in mouse brain (Mus musculus (Mouse), UniProt Q60857); test: Ex vivo [3H] citalopram binding to SERT sites in mouse brain after oral dosing; settings: mice, 60 min after treatment
mice [4] = test: Mouse locomotor activity; type: in vivo
[5] = molecular target: DA Transporter (DAT) sites in mouse brain (Mus musculus (Mouse), UniProt Q61327); test: Ex vivo [3H] WIN 35428 binding to DAT sites in mouse brain after oral dosing; settings: mice, 60 min after treatment
[6] = molecular target: T1, Norepinephrine Transporter (NET) sites in mouse brain; test: in vivo; settings: po, read-out: NET % Transporter Occupancy
[7] = molecular target: rat serotonin (5-HT) reuptake transporter (Rattus norvegicus (Rat), UniProt P31652); test: Serotonin functional uptake assay, rat synaptosomes; type: biochemical; settings: read-out: rSERT IC50
[8] = molecular target: human dopamine transporter (Homo sapiens (Human), UniProt Q01959); test: Dopamine functional uptake assay, recombinant human transporter in CHO-K1 or HEK293 cells; type: cell-based; settings: read-out: hDAT IC50
Sequence of human dopamine transporter (Q01959 whole entry): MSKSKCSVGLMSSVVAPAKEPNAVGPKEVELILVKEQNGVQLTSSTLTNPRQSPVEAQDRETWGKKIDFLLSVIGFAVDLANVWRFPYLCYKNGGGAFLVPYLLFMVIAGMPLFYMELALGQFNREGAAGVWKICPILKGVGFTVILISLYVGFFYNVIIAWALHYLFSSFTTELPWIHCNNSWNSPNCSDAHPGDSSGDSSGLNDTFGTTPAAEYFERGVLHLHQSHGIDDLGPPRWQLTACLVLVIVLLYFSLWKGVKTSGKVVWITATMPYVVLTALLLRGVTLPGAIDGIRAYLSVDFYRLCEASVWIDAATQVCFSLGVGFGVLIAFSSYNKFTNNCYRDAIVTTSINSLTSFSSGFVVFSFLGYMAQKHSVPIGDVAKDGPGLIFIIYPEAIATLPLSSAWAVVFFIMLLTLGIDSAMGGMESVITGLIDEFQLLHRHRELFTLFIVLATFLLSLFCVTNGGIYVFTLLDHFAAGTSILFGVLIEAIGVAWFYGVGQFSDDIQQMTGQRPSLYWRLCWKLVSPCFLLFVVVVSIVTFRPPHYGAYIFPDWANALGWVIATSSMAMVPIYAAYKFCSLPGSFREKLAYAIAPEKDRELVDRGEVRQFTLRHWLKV

[9] = molecular target: rat dopamine reuptake transporter (Rattus norvegicus (Rat), UniProt P23977); test: Dopamine functional uptake assay, rat striatal synaptosomes; type: biochemical; settings: read-out: rDAT IC50
[10] = in vivo; cited from earlier work
Rats = test: Rat forced swim test; type: in vivo
[11] = molecular target: human serotonin transporter (Homo sapiens (Human), UniProt P31645); test: Serotonin functional uptake assay, recombinant human transporter in HEK-293 cells; type: cell-based; settings: Human serotonin transporter uptake; read-out: hSERT IC50
Sequence of human serotonin transporter (P31645 whole entry): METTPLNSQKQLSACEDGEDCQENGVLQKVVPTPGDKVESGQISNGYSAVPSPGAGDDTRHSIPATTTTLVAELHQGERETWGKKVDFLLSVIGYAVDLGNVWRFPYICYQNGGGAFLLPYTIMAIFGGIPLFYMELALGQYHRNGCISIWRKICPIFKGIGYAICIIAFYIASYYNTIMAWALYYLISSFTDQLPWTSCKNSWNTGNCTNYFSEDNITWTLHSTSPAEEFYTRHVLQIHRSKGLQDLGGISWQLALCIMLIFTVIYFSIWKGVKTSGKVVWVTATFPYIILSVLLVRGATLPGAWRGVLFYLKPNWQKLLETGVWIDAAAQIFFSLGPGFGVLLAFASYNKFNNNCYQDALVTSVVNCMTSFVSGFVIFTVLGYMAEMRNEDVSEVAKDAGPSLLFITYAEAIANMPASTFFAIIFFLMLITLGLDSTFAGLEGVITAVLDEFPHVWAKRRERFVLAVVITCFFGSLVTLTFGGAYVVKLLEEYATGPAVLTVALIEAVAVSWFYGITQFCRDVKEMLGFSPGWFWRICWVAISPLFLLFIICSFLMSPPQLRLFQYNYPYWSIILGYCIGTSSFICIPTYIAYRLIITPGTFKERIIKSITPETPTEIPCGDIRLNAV

[12] = molecular target: human norepinephrine reuptake transporter (Homo sapiens (Human), UniProt P23975); settings: cited from earlier work

In the case of `CN(C)C[C@]1(c2ccc3ccccc3c2)CCCC[C@H]1O` (relative stereo) [164 E1, trans-2-((dimethylamino)methyl)-2-(naphthalen-2-yl)cyclohexanol], the “NET Mean Specific Binding ± S.E.M.” value ([1]; 1 mg/kg PO) is reported as 1122 ± 58 dpm, the “NET Mean Specific Binding ± S.E.M.” value ([1]; 3 mg/kg PO) is reported as 1046 ± 23 dpm and the “NET Mean Specific Binding ± S.E.M.” value ([1]; 10 mg/kg PO) is reported as 903 ± 48 dpm. For the same compound, the “NET Mean Specific Binding ± S.E.M.” value ([1]; 30 mg/kg PO) was 610 ± 59 dpm, the “Mouse Tail Suspension Mean Immobility Time ± S.E.M.” value (mice [2]; 10 mg/kg PO) was 162.1 ± 4.6 and the “Mouse Tail Suspension Mean Immobility Time ± S.E.M.” value (mice [2]; 30 mg/kg PO) was 155.3 ± 7.8. For the same compound, the “SERT Mean Specific Binding ± S.E.M.” value ([3]; 1 mg/kg PO) was 2796 ± 133 dpm, the “SERT Mean Specific Binding ± S.E.M.” value ([3]; 3 mg/kg PO) was 2273 ± 74 dpm and the “SERT Mean Specific Binding ± S.E.M.” value ([3]; 10 mg/kg PO) was 783 ± 61 dpm. For the same compound, the “SERT Mean Specific Binding ± S.E.M.” value ([3]; 30 mg/kg PO) was 271 ± 50 dpm, the receptor occupancy at 1 mg/kg ([3]; mouse, 1 mg/kg PO) was 20% and the receptor occupancy at 3 mg/kg ([3]; mouse, 3 mg/kg PO) was 35%. For the same compound, the receptor occupancy at 10 mg/kg ([3]; mouse, 10 mg/kg PO) was 78%, the receptor occupancy at 30 mg/kg ([3]; mouse, 30 mg/kg PO) was 92% and the “Mouse Locomotor Activity Total Distance Traveled ± S.E.M.” value (mice [4]; 10 mg/kg PO) was 210.3 ± 40.4. The “DAT Mean Specific Binding ± S.E.M.” value ([5]; 1 mg/kg PO) was 23574 ± 1313 dpm, the “DAT Mean Specific Binding ± S.E.M.” value ([5]; 3 mg/kg PO) was 18002 ± 1516 dpm and the “DAT Mean Specific Binding ± S.E.M.” value ([5]; 10 mg/kg PO) was 17727 ± 2871 dpm. The “DAT Mean Specific Binding ± S.E.M.” value ([5]; 30 mg/kg PO) was 15630 ± 1085 dpm, the receptor occupancy at 1 mg/kg ([5]; mouse, 1 mg/kg PO) was -11% and the receptor occupancy at 3 mg/kg ([5]; mouse, 3 mg/kg PO) was 16%. It also gave a receptor occupancy at 10 mg/kg ([5]; mouse, 10 mg/kg PO) of 17%, a receptor occupancy at 30 mg/kg ([5]; mouse, 30 mg/kg PO) of 27% and a receptor occupancy at 1 mg/kg [6] of -8%. For the same compound, the receptor occupancy at 3 mg/kg [6] was -1%, the receptor occupancy at 10 mg/kg [6] was 13% and the receptor occupancy at 30 mg/kg [6] was 41%.
In the case of `CN(C)C[C@]1(c2ccc(Cl)c(Cl)c2)CCC[C@H](O)C1` (single isomer, unassigned) [190 E2, Cis-3-(3,4-dichlorophenyl)-3-((dimethylamino)methyl)cyclohexanol], the IC50 [7] is reported as 120 nM, the IC50 [8] is reported as 3 nM and the IC50 [9] is reported as 45 nM.
In the case of `Clc1ccc(C23CNCC2C3)cc1Cl` (single isomer, unassigned) [DOV 21,947, H-1-(3,4-dichlorophenyl)-3-azabicyclo[3.1.0]hexane], the “immobility in the tail suspension test” value [10] is listed as “dose-dependent reduction in immobility”.
With `CNCC1(c2ccc(Cl)c(Cl)c2)CCCCC1` [Compound 75, 1-(1-(3,4-dichlorophenyl)cyclohexyl)-N-methylmethanamine (hydrochloride)] the “Mouse Tail Suspension Mean Immobility Time ± S.E.M.” value (mice [2]; 3 mg/kg PO) was 187.8 ± 9.6, the “Mouse Tail Suspension Mean Immobility Time ± S.E.M.” value (mice [2]; 10 mg/kg PO) was 177.7 ± 5.8 and the “Mouse Tail Suspension Mean Immobility Time ± S.E.M.” value (mice [2]; 30 mg/kg PO) was 143.5 ± 5.8. For the same compound, the “Mouse Locomotor Activity Total Distance Traveled ± S.E.M.” value (mice [4]; 3 mg/kg PO) was 653.5 ± 48.4, the “Mouse Locomotor Activity Total Distance Traveled ± S.E.M.” value (mice [4]; 10 mg/kg PO) was 608.8 ± 83.4 and the “Mouse Locomotor Activity Total Distance Traveled ± S.E.M.” value (mice [4]; 30 mg/kg PO) was 655.3 ± 117.7.
For `CN(C)C[C@]1(c2ccc3ccccc3c2)CC[C@](C)(O)CC1` [Compound 225, (1s,4s)-4-((dimethylamino)methyl)-1-methyl-4-(naphthalen-2-yl)cyclohexanol], the “NET Mean Specific Binding ± S.E.M.” value ([1]; 1 mg/kg PO) was 1170 ± 68 dpm, the “NET Mean Specific Binding ± S.E.M.” value ([1]; 3 mg/kg PO) was 813 ± 64 dpm and the “NET Mean Specific Binding ± S.E.M.” value ([1]; 10 mg/kg PO) was 393 ± 21 dpm. For the same compound, the “NET Mean Specific Binding ± S.E.M.” value ([1]; 30 mg/kg PO) was 230 ± 33 dpm, the “Mouse Tail Suspension Mean Immobility Time ± S.E.M.” value (mice [2]; 10 mg/kg PO) was 137.8 ± 5.2 and the “Mouse Tail Suspension Mean Immobility Time ± S.E.M.” value (mice [2]; 30 mg/kg PO) was 136.3 ± 2.5. The “SERT Mean Specific Binding ± S.E.M.” value ([3]; 1 mg/kg PO) was 3842 ± 152 dpm, the “SERT Mean Specific Binding ± S.E.M.” value ([3]; 3 mg/kg PO) was 2118 ± 139 dpm and the “SERT Mean Specific Binding ± S.E.M.” value ([3]; 10 mg/kg PO) was 904 ± 35 dpm. For the same compound, the “SERT Mean Specific Binding ± S.E.M.” value ([3]; 30 mg/kg PO) was 414 ± 37 dpm, the “Mouse Locomotor Activity Total Distance Traveled ± S.E.M.” value (mice [4]; 0.3 mg/kg PO) was 519.5 ± 56.4 and the “Mouse Locomotor Activity Total Distance Traveled ± S.E.M.” value (mice [4]; 1 mg/kg PO) was 423.4 ± 62.3. The “Rat Forced Swim Climbing (Means ± S.E.M.)” value (“Rat Forced Swim Climbing” for short) (Rats; 3 mg/kg PO) was 8.4 ± 1.7, the “Rat Forced Swim Immobility (Means ± S.E.M.)” value (shortened to “Rat Forced Swim Immobility”) (Rats; 3 mg/kg PO) was 50.8 ± 1.8 and the “Rat Forced Swim Swimming (Means ± S.E.M.)” value (from here on “Rat Forced Swim Swimming”) (Rats; 3 mg/kg PO) was 0.8 ± 0.3. For the same compound, the “Rat Forced Swim Climbing” value (Rats; 10 mg/kg PO) was 11.1 ± 2.7, the “Rat Forced Swim Immobility” value (Rats; 10 mg/kg PO) was 47.6 ± 3.0 and the “Rat Forced Swim Swimming” value (Rats; 10 mg/kg PO) was 1.2 ± 0.6. The “Rat Forced Swim Climbing” value (Rats; 30 mg/kg PO) was 25.0 ± 4.6, the “Rat Forced Swim Immobility” value (Rats; 30 mg/kg PO) was 33.4 ± 4.8 and the “Rat Forced Swim Swimming” value (Rats; 30 mg/kg PO) was 1.1 ± 0.5. The “DAT Mean Specific Binding ± S.E.M.” value ([5]; 1 mg/kg PO) was 19787 ± 3338 dpm, the “DAT Mean Specific Binding ± S.E.M.” value ([5]; 3 mg/kg PO) was 21666 ± 3698 dpm and the “DAT Mean Specific Binding ± S.E.M.” value ([5]; 10 mg/kg PO) was 18872 ± 2775 dpm. The “DAT Mean Specific Binding ± S.E.M.” value ([5]; 30 mg/kg PO) was 14618 ± 1209 dpm and the IC50 [8] was 167 nM.
For `CN(C)C[C@]1(c2ccc(Cl)c(Cl)c2)CC[C@H](O)CC1` [Compound 288, (1s,4s)-4-(3,4-dichlorophenyl)-4-((dimethylamino)methyl)-cyclohexanol], the IC50 [7] was 67 nM, the IC50 [11] was 84 nM and the IC50 [8] was 22 nM. The IC50 [9] was 370 nM.
In the case of `COC(=O)C(c1ccccc1)C1CCCCN1` (centres unmarked) [methylphenidate], the “reported potency (IC50 or Ki), inhibition of human norepinephrine reuptake transporter” value [12] is listed as 38 nM.
